# Results as given in PMC11568214, “The impact of 9-azaglycophymine and phenylguanidine derivatives on the proliferation of various breast cancer cell lines in vitro and in vivo” (Scientific Reports, 2024).
# Several values for one entry are separate records, joined by “and”; a condition that tells them apart may be missing. Equal values may be shown once. Entries after “also recorded” stand apart in the source; their conditions may differ.
# Key:
# BT-474 [1] = assay: NO production, DAF-FM staining, flow cytometry; format: cell-based, human; set-up: key: ↑: induction; ↓: inhibition; ↔: no effect; details: BT-474, IC50 for 72 h
# Description: (§1) Afterwards, the medium was discarded and the cells were stained with DAF-FM (5 µM) in RPMI1640 with 10% (v/v) FCS for 1 h at 37 °C. The stain was completed by additional incubation for 15 min with serum-free medium. The cells were then detached, re-suspended in PBS and analyzed by flow cytometry.
# HCC1937 [2] = assay: NO production, DAF-FM staining, flow cytometry; format: cell-based, human; set-up: key: ↑: induction; ↓: inhibition; ↔: no effect; details: HCC1937, IC50 for 72 h
# Description: as §1
# MCF-7 [3] = assay: NO production, DAF-FM staining, flow cytometry; format: cell-based, human; set-up: key: ↑: induction; ↓: inhibition; ↔: no effect; details: MCF-7, IC50 for 72 h
# Description: as §1
# MDA-MB-468 [4] = assay: NO production, DAF-FM staining, flow cytometry; format: cell-based, human; set-up: key: ↑: induction; ↓: inhibition; ↔: no effect; details: MDA-MB-468, IC50 for 72 h
# Description: as §1
# BT-474 [5] = assay: Autophagy induction, acridine orange staining, flow cytometry; format: cell-based, human; set-up: key: ↑: induction; ↓: inhibition; ↔: no effect; details: BT-474, IC50 for 72 h
# Description: (§2) Cells were seeded in 6-well plates and incubated for 24 h under standard culture conditions. […] For the analyses of autophagy induction, the cell suspension was centrifuged for 3 min at 800 rpm, and the cell pellet was stained with 1 mL of AO working solution (1 µg/mL of AO in growth medium). Cells were incubated for 15 min under standard culture conditions. The cell suspension was centrifuged for 3 min at 800 rpm, and the cell pellet was washed with 1 mL of fresh PBS. Finally, all samples were analyzed by using flow cytometry (FACSAria III, BD Biosciences, New Jersey, USA).
# HCC1937 [6] = assay: as above; format: cell-based, human; set-up: key: ↑: induction; ↓: inhibition; ↔: no effect; details: HCC1937, IC50 for 72 h
# Description: as §2
# MCF-7 [7] = assay: as above; format: cell-based, human; set-up: key: ↑: induction; ↓: inhibition; ↔: no effect; details: MCF-7, IC50 for 72 h
# Description: as §2
# MDA-MB-468 [8] = assay: as above; format: cell-based, human; set-up: key: ↑: induction; ↓: inhibition; ↔: no effect; details: MDA-MB-468, IC50 for 72 h
# Description: as §2
# BT-474 [9] = assay: Pan-caspase activation, ApoStat staining, flow cytometry; format: cell-based, human; set-up: key: ↑: induction; ↓: inhibition; ↔: no effect; details: BT-474, IC50 for 72 h
# Description: (§3) Cells were seeded in 6-well plates and incubated for 24 h under standard culture conditions. […] For the analyses of pan-caspase activation, the cell suspension was centrifuged for 3 min at 800 rpm, and the cell pellet was stained with 100 µL of ApoStat working solution (1 µL of ApoStat and 5% (v/v) FCS in 100 µL of PBS). Cells were incubated for 30 min under standard culture conditions. The cell suspension was centrifuged for 3 min at 800 rpm, and the cell pellet was washed with 1 mL of fresh PBS. Finally, all samples were analyzed by using flow cytometry (FACSAria III, BD Biosciences, New Jersey, USA).
# HCC1937 [10] = assay: as above; format: cell-based, human; set-up: key: ↑: induction; ↓: inhibition; ↔: no effect; details: HCC1937, IC50 for 72 h
# Description: as §3
# MCF-7 [11] = assay: as above; format: cell-based, human; set-up: key: ↑: induction; ↓: inhibition; ↔: no effect; details: MCF-7, IC50 for 72 h
# Description: as §3
# MDA-MB-468 [12] = assay: as above; format: cell-based, human; set-up: key: ↑: induction; ↓: inhibition; ↔: no effect; details: MDA-MB-468, IC50 for 72 h
# Description: as §3
# 4T1 = assay: as above; format: cell-based, mouse; set-up: key: ↑: induction; ↓: inhibition; ↔: no effect; details: 4T1, IC50 for 72 h
# Description: as §3
# [13] = Urine analysis with Multistix urine test stripes in the 4T1 in vivo study; set-up: species or system BALB/c mice; key to Glucose (urine) / Blood (urine): -: marker was not detectable in the respective urine sample; +: marker was detected
# Description: On day 6, the mice were assigned to the study groups using a stratified randomization approach, ensuring that the mean tumor volumes were as similar as possible across all groups. […] The vehicle was 4% (v/v) DMSO in PBS, and the administration route was intraperitoneal (i.p.). The animals were treated daily on days 6–10 (starting from the day when tumors became palpable), 13–17 and day 20. Animals were visually examined daily, and urine samples were collected on the first and last day of treatment and analyzed by Multistix urine test stripes (Siemens Healthineers, Erlangen, Germany). On day 21 of the experiment, the mice were sacrificed using cervical dislocation. Following the sacrifice, the tumor diameters were measured using a caliper. The tumor volume (V) was then calculated using the formula V = L*W^2*0.52[36], where L represents the longest diameter and W the shortest diameter of the tumor.
# [14] = Histopathology of tumors, kidneys, livers and spleens in the 4T1 in vivo study; set-up: species or system BALB/c mice
# Text: Tissue samples of tumors, kidneys, livers and spleens were fixed in 4% (v/v) formalin. After fixation, tissues were embedded in paraffin blocks, and 4 µm thick sections were obtained, mounted on glass slides, stained with Hematoxylin Eosin, and analyzed by using an Olympus BX43 microscope (Olympus, Tokyo, Japan). All slides were scanned with a Leica Biosystems Aperio AT2 with ×400 magnification (n = 3 per group). Virtual slides generated from Leica Aperio AT2 (Wetzlar, Germany) were additionally analyzed with Aperio ImageScope (v12.4.3.5008) and with FIJI-ImageJ software.
smiles,measurement,setting,value
"O=c1[nH]c(Nc2ccc([N+](=O)[O-])cc2)nc2ccccc12 [Compound 19, 4′-nitro-9-aza-glycophymine]",NO,BT-474 [1],↑
same,NO,HCC1937 [2],↑
same,NO,MCF-7 [3],↑
same,NO,MDA-MB-468 [4],↔
same,Autophagy,BT-474 [5],↔
same,Autophagy,HCC1937 [6],↔
same,Autophagy,MCF-7 [7],↔
same,Autophagy,MDA-MB-468 [8],↔
same,Pan-caspases,BT-474 [9],↑
same,Pan-caspases,HCC1937 [10],↑
same,Pan-caspases,MCF-7 [11],↔
same,Pan-caspases,MDA-MB-468 [12],↔
same,Pan-caspases,4T1,↑
same,Bilirubin (urine),"[13]; 5 mg/kg, Day 6, three mice",small
same,Blood (urine),"[13]; 5 mg/kg, Day 6, three mice",-
same,Ketones (urine),"[13]; 5 mg/kg, Day 6, three mice",10 mg/dL
same,Leucocytes (urine),"[13]; 5 mg/kg, Day 6, three mice",25 cells/µL
same,Specific gravity (urine),"[13]; 5 mg/kg, Day 6, three mice",1.025 and 1.000 and 1.030
same,pH (urine),"[13]; 5 mg/kg, Day 6, three mice",6 and 5
same,Bilirubin (urine),"[13]; 5 mg/kg, Day 20, three mice",small
same,Blood (urine),"[13]; 5 mg/kg, Day 20, three mice",-
same,Glucose (urine),"[13]; 5 mg/kg, Day 20, three mice",-
same,Ketones (urine),"[13]; 5 mg/kg, Day 20, three mice",10 mg/dL
same,Leucocytes (urine),"[13]; 5 mg/kg, Day 20, three mice",25 cells/µL
same,Proteins (urine),"[13]; 5 mg/kg, Day 20, three mice",100 mg/dL
same,Specific gravity (urine),"[13]; 5 mg/kg, Day 20, three mice",1.030 and 1.025
same,pH (urine),"[13]; 5 mg/kg, Day 20, three mice",6
same,Bilirubin (urine),"[13]; 20 mg/kg, Day 6, three mice",small
same,Blood (urine),"[13]; 20 mg/kg, Day 6, three mice",-
same,Ketones (urine),"[13]; 20 mg/kg, Day 6, three mice",10 mg/dL
same,Leucocytes (urine),"[13]; 20 mg/kg, Day 6, three mice",25 cells/µL
same,Proteins (urine),"[13]; 20 mg/kg, Day 6, three mice",30 mg/dL
same,Specific gravity (urine),"[13]; 20 mg/kg, Day 6, three mice",1.025 and 1.030
same,Uroglobin (urine),"[13]; 20 mg/kg, Day 6, three mice",4 mg/dL
same,pH (urine),"[13]; 20 mg/kg, Day 6, three mice",6 and 5
same,Bilirubin (urine),"[13]; 20 mg/kg, Day 20, three mice",small; also recorded: moderate
same,Blood (urine),"[13]; 20 mg/kg, Day 20, three mice",-
same,Ketones (urine),"[13]; 20 mg/kg, Day 20, three mice",10 mg/dL and 5 mg/dL
same,Specific gravity (urine),"[13]; 20 mg/kg, Day 20, three mice",1.030 and 1.025
same,Uroglobin (urine),"[13]; 20 mg/kg, Day 20, three mice",4 mg/dL and 8 mg/dL
same,pH (urine),"[13]; 20 mg/kg, Day 20, three mice",5 and 6
same,"morphological changes in kidney, spleen and liver tissue","[14]; 5 and 20 mg/kg i.p., day 21, compared to control group",did not cause significant morphological changes
same,extent of tumor necrosis,"[14]; treated animals in comparison to the control group, day 21",a higher extent of necrosis was found in treated animals
